Assay results: PubChem BioAssay (NCI)
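Growth conditions: 96-well plates. Treatment: test compound, 48 hours, 5 concentrations. Analysis: linear interpolation between bracketing concentrations; unreached endpoints set to highest concentration. TGI: concentration producing complete growth inhibition.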

Key:
Experiment in all cases: growth of human tumour cells (NCI), 48 h
SNB-19 CNS = system: SNB-19 CNS
SN12C renal = system: SN12C renal
SK-MEL-28 melanoma = system: SK-MEL-28 melanoma
NCI-H23 lung = system: NCI-H23 lung
RXF-631 renal = system: RXF-631 renal
ACHN renal = system: ACHN renal
SF-295 CNS = system: SF-295 CNS
SK-MEL-5 melanoma = system: SK-MEL-5 melanoma
IGROV1 ovarian = system: IGROV1 ovarian
SW-620 colon = system: SW-620 colon
NCI-H460 lung = system: NCI-H460 lung
UACC-257 melanoma = system: UACC-257 melanoma
M14 melanoma = system: M14 melanoma
SNB-75 CNS = system: SNB-75 CNS
786-0 renal = system: 786-0 renal
TK-10 renal = system: TK-10 renal
HCT-15 colon = system: HCT-15 colon
SNB-78 CNS = system: SNB-78 CNS
K-562 leukemia = system: K-562 leukemia
SK-MEL-2 melanoma = system: SK-MEL-2 melanoma
DLD-1 colon = system: DLD-1 colon
HOP-62 NSCLC = system: HOP-62 NSCLC
OVCAR-3 ovarian = system: OVCAR-3 ovarian
LOX IMVI melanoma = system: LOX IMVI melanoma
KM20L2 colon = system: KM20L2 colon
SF-539 CNS = system: SF-539 CNS
A498 renal = system: A498 renal
HOP-18 NSCLC = system: HOP-18 NSCLC
KM12 colon = system: KM12 colon
M19-MEL melanoma = system: M19-MEL melanoma
OVCAR-8 ovarian = system: OVCAR-8 ovarian
MALME-3M melanoma = system: MALME-3M melanoma
RPMI-8226 leukemia = system: RPMI-8226 leukemia
A549 NSCLC = system: A549 NSCLC
HCT-116 colon = system: HCT-116 colon
CAKI-1 renal = system: CAKI-1 renal
OVCAR-4 ovarian = system: OVCAR-4 ovarian
XF 498 CNS = system: XF 498 CNS
HCC-2998 colon = system: HCC-2998 colon
DMS 273 small cell lung = system: DMS 273 small cell lung
SK-OV-3 ovarian = system: SK-OV-3 ovarian
UACC-62 melanoma = system: UACC-62 melanoma
RXF 393 renal = system: RXF 393 renal
LXFL 529 NSCLC = system: LXFL 529 NSCLC
EKVX NSCLC = system: EKVX NSCLC
DMS 114 small cell lung = system: DMS 114 small cell lung
UO-31 renal = system: UO-31 renal
HOP-92 NSCLC = system: HOP-92 NSCLC
U251 CNS = system: U251 CNS
NCI-H522 lung = system: NCI-H522 lung
OVCAR-5 ovarian = system: OVCAR-5 ovarian
SF-268 CNS = system: SF-268 CNS
MOLT-4 leukemia = system: MOLT-4 leukemia
HT29 colon = system: HT29 colon
NCI-H226 lung = system: NCI-H226 lung
CCRF-CEM leukemia = system: CCRF-CEM leukemia
COLO 205 colon = system: COLO 205 colon

In the case of `C[C@]12CC[C@H](OC3CCCCO3)CC1=CC[C@@H]1C2CC[C@]2(C)/C(=N/OCCC#N)CCC12` (stereo not given in full), the TGI (SNB-19 CNS) is reported as greater than 100 µM, the TGI (SN12C renal) is reported as greater than 100 µM and the TGI (SK-MEL-28 melanoma) is reported as greater than 100 µM. For the same compound, the TGI (NCI-H23 lung) was 95.1 µM, the TGI (RXF-631 renal) was greater than 100 µM and the TGI (ACHN renal) was greater than 100 µM. It also gave a TGI (SF-295 CNS) greater than 100 µM, a TGI (SK-MEL-5 melanoma) greater than 100 µM and a TGI (IGROV1 ovarian) greater than 100 µM. The TGI (SW-620 colon) was greater than 100 µM, the TGI (NCI-H460 lung) was greater than 100 µM and the TGI (UACC-257 melanoma) was greater than 100 µM. It also gave a TGI (M14 melanoma) greater than 100 µM, a TGI (SNB-75 CNS) of 58.4 µM and a TGI (786-0 renal) of 72.2 µM. It also gave a TGI (TK-10 renal) of 72.9 µM, a TGI (HCT-15 colon) greater than 100 µM and a TGI (SNB-78 CNS) of 72.1 µM. For the same compound, the TGI (K-562 leukemia) was greater than 100 µM, the TGI (SK-MEL-2 melanoma) was greater than 100 µM and the TGI (DLD-1 colon) was greater than 100 µM. The TGI (HOP-62 NSCLC) was greater than 100 µM, the TGI (OVCAR-3 ovarian) was greater than 100 µM and the TGI (LOX IMVI melanoma) was greater than 100 µM. It also gave a TGI (KM20L2 colon) greater than 100 µM, a TGI (SF-539 CNS) greater than 100 µM and a TGI (A498 renal) greater than 100 µM. It also gave a TGI (HOP-18 NSCLC) greater than 100 µM, a TGI (KM12 colon) greater than 100 µM and a TGI (M19-MEL melanoma) greater than 100 µM. For the same compound, the TGI (OVCAR-8 ovarian) was greater than 100 µM, the TGI (MALME-3M melanoma) was greater than 100 µM and the TGI (RPMI-8226 leukemia) was greater than 100 µM. It also gave a TGI (A549 NSCLC) greater than 100 µM, a TGI (HCT-116 colon) greater than 100 µM and a TGI (CAKI-1 renal) greater than 100 µM. It also gave a TGI (OVCAR-4 ovarian) of 66.5 µM, a TGI (XF 498 CNS) of 20.5 µM and a TGI (HCC-2998 colon) greater than 100 µM. For the same compound, the TGI (DMS 273 small cell lung) was greater than 100 µM, the TGI (SK-OV-3 ovarian) was greater than 100 µM and the TGI (UACC-62 melanoma) was greater than 100 µM. For the same compound, the TGI (RXF 393 renal) was 40.2 µM, the TGI (LXFL 529 NSCLC) was greater than 100 µM and the TGI (EKVX NSCLC) was greater than 100 µM. The TGI (DMS 114 small cell lung) was greater than 100 µM, the TGI (UO-31 renal) was greater than 100 µM and the TGI (HOP-92 NSCLC) was 57.6 µM. For the same compound, the TGI (U251 CNS) was greater than 100 µM and the TGI (NCI-H522 lung) was greater than 100 µM.

In the case of `C/C(=N/NC(=O)c1ccccc1O)c1ccc(/C(C)=N\NC(=O)c2ccccc2O)c2nc3cc(C)c(C)cc3nc12`, the TGI (SNB-19 CNS) is reported as greater than 100 µM, the TGI (SN12C renal) is reported as greater than 100 µM and the TGI (SK-MEL-28 melanoma) is reported as greater than 100 µM. It also gave a TGI (NCI-H23 lung) greater than 100 µM, a TGI (RXF-631 renal) greater than 100 µM and a TGI (ACHN renal) greater than 100 µM. It also gave a TGI (SF-295 CNS) greater than 100 µM, a TGI (SK-MEL-5 melanoma) greater than 100 µM and a TGI (IGROV1 ovarian) greater than 100 µM. It also gave a TGI (SW-620 colon) greater than 100 µM, a TGI (NCI-H460 lung) greater than 100 µM and a TGI (UACC-257 melanoma) greater than 100 µM. The TGI (OVCAR-5 ovarian) was greater than 100 µM, the TGI (M14 melanoma) was greater than 100 µM and the TGI (SNB-75 CNS) was greater than 100 µM. For the same compound, the TGI (SF-268 CNS) was greater than 100 µM, the TGI (786-0 renal) was greater than 100 µM and the TGI (TK-10 renal) was greater than 100 µM. It also gave a TGI (HCT-15 colon) greater than 100 µM, a TGI (MOLT-4 leukemia) greater than 100 µM and a TGI (SNB-78 CNS) greater than 100 µM. The TGI (K-562 leukemia) was greater than 100 µM, the TGI (SK-MEL-2 melanoma) was greater than 100 µM and the TGI (DLD-1 colon) was greater than 100 µM. The TGI (HOP-62 NSCLC) was greater than 100 µM, the TGI (OVCAR-3 ovarian) was greater than 100 µM and the TGI (HT29 colon) was greater than 100 µM. It also gave a TGI (LOX IMVI melanoma) greater than 100 µM, a TGI (KM20L2 colon) greater than 100 µM and a TGI (SF-539 CNS) greater than 100 µM. For the same compound, the TGI (A498 renal) was greater than 100 µM, the TGI (HOP-18 NSCLC) was greater than 100 µM and the TGI (KM12 colon) was greater than 100 µM. For the same compound, the TGI (M19-MEL melanoma) was greater than 100 µM, the TGI (OVCAR-8 ovarian) was greater than 100 µM and the TGI (MALME-3M melanoma) was greater than 100 µM. For the same compound, the TGI (A549 NSCLC) was greater than 100 µM, the TGI (NCI-H226 lung) was greater than 100 µM and the TGI (HCT-116 colon) was greater than 100 µM. The TGI (OVCAR-4 ovarian) was greater than 100 µM, the TGI (XF 498 CNS) was greater than 100 µM and the TGI (HCC-2998 colon) was greater than 100 µM. It also gave a TGI (DMS 273 small cell lung) greater than 100 µM, a TGI (SK-OV-3 ovarian) greater than 100 µM and a TGI (UACC-62 melanoma) greater than 100 µM. It also gave a TGI (RXF 393 renal) greater than 100 µM, a TGI (LXFL 529 NSCLC) greater than 100 µM and a TGI (CCRF-CEM leukemia) greater than 100 µM. The TGI (EKVX NSCLC) was greater than 100 µM, the TGI (COLO 205 colon) was greater than 100 µM and the TGI (DMS 114 small cell lung) was greater than 100 µM. The TGI (UO-31 renal) was greater than 100 µM, the TGI (HOP-92 NSCLC) was greater than 100 µM and the TGI (U251 CNS) was greater than 100 µM. It also gave a TGI (NCI-H522 lung) greater than 100 µM.
